From the supplement of paper PMC11451515

Columns and labels:
Conditions in all cases: 48 h
SEM cells [1] = assay: AUC of viability dose-response curve (% viability x log10 dose units); higher = less sensitive
Outline: (§1)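 Leukemia cells adapted to each medium (500 or 1000 cells/well, 1536-well plates) were exposed to library compounds in DMSO for 48 h at 37°C at 11 threefold doses, 47 μM to 0.79 nM. Luminescence by CellTiter-Glo One was normalised per plate to DMSO and cell-free wells, then fitted with a four-parameter log-logistic curve on log10 dose. Curves above full viability were scaled and quality-control failures removed before area under the curve was integrated by trapezoidal rule.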

P12-Ichikawa [2] = assay: as above
Outline: as §1

NOMO1 [3] = assay: as above
Outline: as §1

SEM cells [4] = assay: cell viability relative to DMSO control; higher = less cytotoxic
Outline: (§2)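 Viability was expressed as a per-plate percentage of DMSO wells, with cell-free wells as background. Leukemia cells (NOMO1 or SEM at 500 cells/well, P12-Ichikawa at 1000 cells/well) were adapted for at least four passages in each medium and seeded in 1536-well plates (5 μl). Library compounds in DMSO were pin-dosed over an 11-point threefold series from 47 μM to 0.79 nM, and CellTiter-Glo One luminescence was read after 48 h at 37°C.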

P12-Ichikawa [5] = assay: as above
Outline: as §2

NOMO1 [6] = assay: as above
Outline: as §2

CCOC(=O)N1CCN(/[N+]([O-])=N/Oc2ccc([N+](=O)[O-])cc2[N+](=O)[O-])CC1
AUC of viability dose-response curve
Conditions | NOMO1 [3] | P12-Ichikawa [2] | SEM cells [1]
HPLM + 10% dialyzed FBS | 462 | 447 | 303
RPMI 5 mM glucose + 10% FBS | 429 | 425 | 324
RPMI 5 mM glucose + 10% dialyzed FBS | 412 | 398 | 337

cell viability [%]
Conditions | NOMO1 [6] | P12-Ichikawa [5] | SEM cells [4]
HPLM + 10% dialyzed FBS, 0.000781 µM | 85.1 | 93.7 | 64.4
HPLM + 10% dialyzed FBS, 0.00234 µM | 102 | 94.7 | 70.7
HPLM + 10% dialyzed FBS, 0.00702 µM | 102 | 96 | 60.1
HPLM + 10% dialyzed FBS, 0.0211 µM | 106 | 97.1 | 77.6
HPLM + 10% dialyzed FBS, 0.0632 µM | 117 | 98.2 | 76
HPLM + 10% dialyzed FBS, 0.19 µM | 101 | 102 | 94.4
HPLM + 10% dialyzed FBS, 0.569 µM | 109 | 101 | 85.7
HPLM + 10% dialyzed FBS, 1.71 µM | 110 | 97 | 73.8
HPLM + 10% dialyzed FBS, 5.12 µM | 97.1 | 95.5 | 42.5
HPLM + 10% dialyzed FBS, 15.4 µM | 98.5 | 96.9 | 22.4
HPLM + 10% dialyzed FBS, 46.1 µM | 50.8 | 27.1 | 14
RPMI 5 mM glucose + 10% FBS, 0.000781 µM | 80 | 91.6 | 70.6
RPMI 5 mM glucose + 10% FBS, 0.00234 µM | 100 | 96.5 | 84.9
RPMI 5 mM glucose + 10% FBS, 0.00702 µM | 89.3 | 88 | 56.8
RPMI 5 mM glucose + 10% FBS, 0.0211 µM | 94.7 | 90.6 | 91.9
RPMI 5 mM glucose + 10% FBS, 0.0632 µM | 89.2 | 102 | 93.9
RPMI 5 mM glucose + 10% FBS, 0.19 µM | 92.9 | 99.2 | 94.9
RPMI 5 mM glucose + 10% FBS, 0.569 µM | 94.1 | 99.8 | 88.8
RPMI 5 mM glucose + 10% FBS, 1.71 µM | 98.5 | 97.1 | 81.5
RPMI 5 mM glucose + 10% FBS, 5.12 µM | 102 | 84.3 | 40.7
RPMI 5 mM glucose + 10% FBS, 15.4 µM | 87 | 78.7 | 13.2
RPMI 5 mM glucose + 10% FBS, 46.1 µM | 38.5 | 19.9 | 8.13
RPMI 5 mM glucose + 10% dialyzed FBS, 0.000781 µM | 82.1 | 92 | 77.3
RPMI 5 mM glucose + 10% dialyzed FBS, 0.00234 µM | 87.5 | 83.9 | 91.6
RPMI 5 mM glucose + 10% dialyzed FBS, 0.00702 µM | 80.1 | 87.7 | 72.5
RPMI 5 mM glucose + 10% dialyzed FBS, 0.0211 µM | 86.8 | 88.3 | 88.2
RPMI 5 mM glucose + 10% dialyzed FBS, 0.0632 µM | 99.7 | 88.4 | 89
RPMI 5 mM glucose + 10% dialyzed FBS, 0.19 µM | 96.6 | 86.4 | 86.2
RPMI 5 mM glucose + 10% dialyzed FBS, 0.569 µM | 86.7 | 90.1 | 102
RPMI 5 mM glucose + 10% dialyzed FBS, 1.71 µM | 89.5 | 85.9 | 78.2
RPMI 5 mM glucose + 10% dialyzed FBS, 5.12 µM | 89.2 | 82.8 | 43.6
RPMI 5 mM glucose + 10% dialyzed FBS, 15.4 µM | 89.6 | 82.8 | 16.7
RPMI 5 mM glucose + 10% dialyzed FBS, 46.1 µM | 41.9 | 18.8 | 8.98

CC1(C)OC2CC3C4CC(F)C/5=C/C(=O)/C=C\C5(C)C4C(O)CC3(C)[C@@]2(O1)C(=O)CO (stereo not given in full)
AUC of viability dose-response curve
Conditions | NOMO1 [3] | P12-Ichikawa [2] | SEM cells [1]
HPLM + 10% dialyzed FBS | 454 | 390 | 386
RPMI 5 mM glucose + 10% FBS | 465 | 340 | 360
RPMI 5 mM glucose + 10% dialyzed FBS | 456 | 325 | 354

cell viability [%]
Conditions | NOMO1 [6] | P12-Ichikawa [5] | SEM cells [4]
HPLM + 10% dialyzed FBS, 0.000781 µM | 105 | 110 | 97.4
HPLM + 10% dialyzed FBS, 0.00234 µM | 111 | 117 | 95.3
HPLM + 10% dialyzed FBS, 0.00702 µM | 118 | 114 | 95.6
HPLM + 10% dialyzed FBS, 0.0211 µM | 119 | 115 | 102
HPLM + 10% dialyzed FBS, 0.0632 µM | 126 | 107 | 94.6
HPLM + 10% dialyzed FBS, 0.19 µM | 117 | 94.9 | 85.9
HPLM + 10% dialyzed FBS, 0.569 µM | 110 | 78 | 77.2
HPLM + 10% dialyzed FBS, 1.71 µM | 124 | 73.8 | 65.9
HPLM + 10% dialyzed FBS, 5.12 µM | 123 | 71.6 | 65.7
HPLM + 10% dialyzed FBS, 15.4 µM | 124 | 72.5 | 33.9
HPLM + 10% dialyzed FBS, 46.1 µM | 119 | 70.7 | 71.1
RPMI 5 mM glucose + 10% FBS, 0.000781 µM | 113 | – | 91.4
RPMI 5 mM glucose + 10% FBS, 0.00234 µM | 108 | – | 98.9
RPMI 5 mM glucose + 10% FBS, 0.00702 µM | 102 | – | 104
RPMI 5 mM glucose + 10% FBS, 0.0211 µM | 115 | – | 105
RPMI 5 mM glucose + 10% FBS, 0.0632 µM | 121 | – | 101
RPMI 5 mM glucose + 10% FBS, 0.19 µM | 127 | – | 77.5
RPMI 5 mM glucose + 10% FBS, 0.569 µM | 116 | – | 60.7
RPMI 5 mM glucose + 10% FBS, 1.71 µM | 112 | – | 56
RPMI 5 mM glucose + 10% FBS, 5.12 µM | 117 | – | 59.6
RPMI 5 mM glucose + 10% FBS, 15.4 µM | 119 | – | 20.5
RPMI 5 mM glucose + 10% FBS, 46.1 µM | 119 | – | 60.3
RPMI 5 mM glucose + 10% dialyzed FBS, 0.000781 µM | 124 | 115 | 109
RPMI 5 mM glucose + 10% dialyzed FBS, 0.00234 µM | 113 | 119 | 95.4
RPMI 5 mM glucose + 10% dialyzed FBS, 0.00702 µM | 125 | 117 | 122
RPMI 5 mM glucose + 10% dialyzed FBS, 0.0211 µM | 122 | 102 | 125
RPMI 5 mM glucose + 10% dialyzed FBS, 0.0632 µM | 123 | 94.4 | 106
RPMI 5 mM glucose + 10% dialyzed FBS, 0.19 µM | 150 | 76.6 | 78
RPMI 5 mM glucose + 10% dialyzed FBS, 0.569 µM | 123 | 61.4 | 75.4
RPMI 5 mM glucose + 10% dialyzed FBS, 1.71 µM | 138 | 52.1 | 62.7
RPMI 5 mM glucose + 10% dialyzed FBS, 5.12 µM | 135 | 50.8 | 55.9
RPMI 5 mM glucose + 10% dialyzed FBS, 15.4 µM | 119 | 45.9 | 26
RPMI 5 mM glucose + 10% dialyzed FBS, 46.1 µM | 132 | 49 | 61.6
